According to US6956053B2, “Pyrazole derivatives and their use as gastrin and cholecystokin receptor ligands” (The James Black Foundation Limited, priority 2000, dated 2005):

Target: T1, gastrin (CCK2) receptors (Rattus norvegicus, UniProt P30553)
T1 construct: The stomach was excised and flushed with ca. 1 ml of unbuffered physiological saline solution; from tissue; host or cells: isolated, lumen-perfused stomach of immature rats (33-50 g, ca. 21 days old)
T1 sequence (P30553 1-452): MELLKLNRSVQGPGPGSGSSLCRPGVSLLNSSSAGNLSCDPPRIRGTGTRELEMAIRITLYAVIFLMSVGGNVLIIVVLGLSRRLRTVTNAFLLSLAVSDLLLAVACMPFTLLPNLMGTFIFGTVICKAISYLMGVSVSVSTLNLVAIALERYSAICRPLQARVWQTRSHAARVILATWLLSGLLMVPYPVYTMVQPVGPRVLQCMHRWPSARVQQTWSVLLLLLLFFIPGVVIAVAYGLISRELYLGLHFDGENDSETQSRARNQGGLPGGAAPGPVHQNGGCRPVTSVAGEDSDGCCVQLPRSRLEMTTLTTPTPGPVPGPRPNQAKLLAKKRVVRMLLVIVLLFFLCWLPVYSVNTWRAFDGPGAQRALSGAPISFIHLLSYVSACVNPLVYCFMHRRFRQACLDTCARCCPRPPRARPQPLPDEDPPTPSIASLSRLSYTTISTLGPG
Assay: immature rat stomach assay, gastrin (CCK2) antagonist activity against pentagastrin-stimulated acid secretion
Format: cell-based
Conditions: isolated immature rat stomach, pentagastrin dose-response curves, 60 min after drug addition; for Kb: read-out: Rat Stomach pKB (converted)
Method: The compounds of the examples were tested for gastrin (CCK2) antagonist activity in an immature rat stomach assay. The procedure was as follows:
The oesophagus of immature rats (33-50 g, ca. 21 days old) was ligated at the level of the cardiac sphincter and the duodenal sphincter was cannulated. The stomach was excised and flushed with ca. 1 ml of unbuffered physiological saline solution. The fundus was punctured and cannulated. A further 4-5 ml of unbuffered solution was flushed through the stomach to ensure the preparation was not leaking. The stomach was lowered into a jacketed organ bath containing 40 ml of buffered solution containing 3×10^−8 M 5-methylfurmethide, maintained at 37° and gassed vigorously with 95% O2/5% CO2. The stomach was continuously perfused at a rate of 1 ml min^−1 with unbuffered solution gassed with 100% O2 with the perfusate passing over an internally referenced pH-electrode fixed 12 cm above the stomach.
After 120 min of stabilisation the drugs were added directly to the serosal solution in the organ bath and after a further 60 min cumulative pentagastrin dose-response curves were started. Changes in acid secretion were monitored and the curves analysed according to Black et al., Br. J. Pharmacol., 1985, 86, 581.

With `COc1c(C(=O)Nc2cccc(C(=O)O)c2)c(COC23CC4CC(CC(C4)C2)C3)nn1C1CCCCC1` [Example 5, 3-{[3-(Adamantan-1-yloxymethyl)-1-cyclohexyl-5-methoxy-1H-pyrazole-4-carbonyl]-amino}-benzoic acid] the Kb was 170 nM.

With `Cn1c(COC23CC4CC(CC(C4)C2)C3)c(C(=O)Nc2cccc(C(=O)O)c2)c(=O)n1C1CCCCC1` [Example 6, 3-{[5-(Adamantan-1-yloxymethyl)-2-cyclohexyl-1-methyl-3-oxo-2,3-dihydro-1H-pyrazole-4-carbonyl]-amino}-benzoic acid] the Kb was 269 nM.

With “3-{[3-(Adamantan-1-yloxymethyl)-3-phenyl-1-o-tolyl-1H-pyrazole-4-carbonyl]-amino}-benzoic acid [Example 2]” the “Rat Stomach pKB” value was 5.66 ± 0.24.

For `Cc1ccccc1-n1nc(COC23CC4CC(CC(C4)C2)C3)c(C(=O)Nc2cccc(C(=O)O)c2)c1O` [Example 3, 3-{[3-(Adamantan-1-yloxymethyl)-5-hydroxy-1-o-tolyl-1H-pyrazole-4-carbonyl]-amino}-benzoic acid], the Kb was 19.1 nM.

`O=C(O)c1cccc(NC(=O)c2c(COC34CC5CC(CC(C5)C3)C4)nn(C3CCCCC3)c2O)c1` [Example 4, 3-{[3-(Adamantan-1-yloxymethyl)-1-cyclohexyl-5-hydroxyl-1H-pyrazole-4-carbonyl]-amino}-benzoic acid] showed a Kb of 30.9 nM.
